Experimental data: ChEMBL document CHEMBL1135172, “High-throughput synthesis optimization of sulfonamide NPY Y5 antagonists” (Bioorg Med Chem Lett, 2002)

Target: T1, Neuropeptide Y receptor type 5 (Homo sapiens, UniProt Q15761)
T1 sequence (Q15761 whole entry): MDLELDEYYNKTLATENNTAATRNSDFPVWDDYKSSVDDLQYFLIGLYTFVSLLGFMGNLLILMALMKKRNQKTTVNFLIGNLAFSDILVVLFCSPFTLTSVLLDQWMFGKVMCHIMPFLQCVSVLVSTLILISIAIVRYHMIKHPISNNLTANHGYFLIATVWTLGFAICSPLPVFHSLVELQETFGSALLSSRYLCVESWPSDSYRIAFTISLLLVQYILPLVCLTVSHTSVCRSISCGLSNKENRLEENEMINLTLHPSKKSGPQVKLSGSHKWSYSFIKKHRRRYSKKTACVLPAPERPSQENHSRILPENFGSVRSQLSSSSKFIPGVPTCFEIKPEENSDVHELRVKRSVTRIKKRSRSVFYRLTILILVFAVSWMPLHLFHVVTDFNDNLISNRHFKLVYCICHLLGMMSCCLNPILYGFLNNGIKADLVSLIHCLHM
Assay: Displacement of [125I]PYY from human Neuropeptide Y receptor type 5 in COS-7 cell membranes

Question: Cc1ccc(S(=O)(=O)NC(Cc2ccccc2)C(=O)NCCCCCCNS(=O)(=O)c2cccc3ccccc23)cc1 (centres undefined) was tested. Which Ki did it give?
Answer: Its Ki is 426 nM.

Question: O=C(NCCCCCCNS(=O)(=O)c1cccc2ccccc12)Nc1cccc2ccccc12 was tested. Which Ki did it give?
Answer: The Ki was 231 nM.

Question: Which Ki does the source give for O=C(NC[C@H]1CC[C@H](CNS(=O)(=O)c2ccc3ccccc3c2)CC1)C1CCc2ccccc2C1 (some centres undefined) here?
Answer: Its Ki is over 100000 nM.

Question: Which Ki does the source give for O=C(NC[C@H]1CC[C@H](CNS(=O)(=O)c2ccccc2[N+](=O)[O-])CC1)Nc1cccc2ccccc12 here?
Answer: Its Ki is 103 nM.

Question: How did the Ki turn out when O=C(NCCCCCCNS(=O)(=O)c1ccccc1[N+](=O)[O-])Nc1cccc2ccccc12 was run?
Answer: Its Ki is 151 nM.

Question: How did the Ki turn out when O=C(NCCCCCCNS(=O)(=O)c1ccccc1[N+](=O)[O-])c1ccc2ccccc2c1 was run?
Answer: The Ki was 412 nM.

Question: With Cc1ccc(S(=O)(=O)NC(Cc2ccccc2)C(=O)NC[C@H]2CC[C@H](CNS(=O)(=O)c3ccc4ccccc4c3)CC2)cc1 (some centres undefined) as the compound, how does the Ki read?
Answer: The Ki was 199 nM.

Question: How did the Ki turn out when O=S(=O)(NC[C@H]1CC[C@H](CNCc2ccc3c(c2)OCCO3)CC1)c1cccc2ccccc12 was run?
Answer: The Ki was 12 nM.

Question: O=C(NCCCCNS(=O)(=O)c1ccccc1[N+](=O)[O-])Nc1cccc2ccccc12 was tested. Which Ki did it give?
Answer: The Ki was 724 nM.

Question: With O=C(NC[C@H]1CC[C@H](CNS(=O)(=O)c2cccc3ccccc23)CC1)C1CCc2ccccc2C1 (some centres undefined) as the compound, how does the Ki read?
Answer: The Ki was 4120 nM.

Question: With O=C(NCCCCCCNS(=O)(=O)c1ccccc1[N+](=O)[O-])C1CCc2ccccc2C1 (centres undefined) as the compound, how does the Ki read?
Answer: The Ki was 46 nM.

Question: O=C(NCCCCCCNS(=O)(=O)c1cccc2ccccc12)C1CCc2ccccc2C1 (centres undefined) was tested. Which Ki did it give?
Answer: The Ki was 724 nM.

Question: How did the Ki turn out when O=C(NC[C@H]1CC[C@H](CNS(=O)(=O)c2ccc3cccc([N+](=O)[O-])c3c2)CC1)C1CCc2ccccc2C1 (some centres undefined) was run?
Answer: The Ki was 724 nM.

Question: With O=C(NC[C@H]1CC[C@H](CNS(=O)(=O)c2cccc3ccccc23)CC1)Nc1ccc(Cl)c(Cl)c1 as the compound, how does the Ki read?
Answer: The Ki was 95 nM.
